Laboratory results as given in article PMC467089, “Click estradiol dimers with novel aromatic bridging units: synthesis and anticancer evaluation” (Journal of Enzyme Inhibition and Medicinal Chemistry, 2024).
Entries after “also recorded” stand apart in the source; their conditions may differ.

How the values were obtained:
[1] = test system: CEM-DNR (daunorubicin resistant variant of CCRF-CEM); assay: MTS cytotoxicity assay, CEM-DNR; type: cell-based, human; details: Homo sapiens, CEM-DNR, 72 h, read-out: IC50 cytotoxic activity CEM-DNR
How it was run: (§1)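 Cells kept in recommended medium with 10% foetal calf serum and penicillin/streptomycin at 37 °C, 5% CO2, seeded overnight, then exposed to fourfold serial DMSO dilutions of compound for 72 h. Viability was read with MTS reagent; technical duplicates, three biological replicates.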

[2] = test system: K562-TAX (paclitaxel-resistant variant of K562); assay: MTS cytotoxicity assay, K562-TAX; type: cell-based, human; details: Homo sapiens, K562-Tax, 72 h, read-out: IC50 cytotoxic activity K562-TAX
How it was run: as §1

[3] = test system: A549 (lung adenocarcinoma); assay: MTS cytotoxicity assay, A549; type: cell-based, human; details: Homo sapiens, A549, 72 h, read-out: IC50 cytotoxic activity A549
How it was run: as §1

[4] = test system: U2OS (osteosarcoma); assay: MTS cytotoxicity assay, U2OS; type: cell-based, human; details: Homo sapiens, U2OS, 72 h, read-out: IC50 cytotoxic activity U2OS
How it was run: as §1

[5] = MTS cytotoxicity assay, MRC-5; type: cell-based; details: human
How it was run: (§2)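 Viability is measured by MTS after cells, seeded overnight, receive fourfold-diluted compounds for 72 h at 37 °C.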

[6] = MTS cytotoxicity assay, BJ; type: cell-based; details: human
How it was run: as §1

[7] = MTS cytotoxicity assay, HUVEC; type: cell-based; details: human
How it was run: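 MTS read-out after 72 h compound exposure at 37 °C. Cells plated the day before, treated with fourfold serial dilutions from DMSO stocks; duplicate wells, three independent experiments.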

[8] = test system: U2OS cells; assay: Immunofluorescence of microtubules / mitotic spindle; type: cell-based, human; details: 1 µM, 24-h incubation
Source text: In addition, the presence of aster-like tubulin structures indicated the failure in microtubule elongation (Figure 4, ED5). […] The observed intracellular effects of ED3 and ED5 are consistent with data from in vitro assembly assays and cell cycle analyses, thereby strongly supporting the proposed antimitotic mechanisms of these EDs. […] Importantly, cytotoxic IC50 values may vary depending on the duration of exposure to the drug. A more extended exposure could lead to a decrease in the IC50 value, and vice versa. This temporal factor could also contribute to the observed differential sensitivity among the cell lines. The detailed mechanism and the extent to which these cellular and molecular dynamics (MD) contribute to the observed phenomenon might necessitate further investigation and experimentation.
U2OS cells, cultivated on coverslips, underwent a PBS wash and were then fixed in a solution of 3% paraformaldehyde in a buffer containing 10 mM MES, 150 mM NaCl, 5 mM EGTA, 5 mM MgCl2, 5 mM glucose, adjusted to a pH of 6.1. The nuclei were made visible using Hoechst 33342. Subsequently, a 60-min blocking step with 5% goat serum in PBS (SpinChem, Seattle, WA) was followed by a 60-min incubation with α-tubulin (DM1A) mouse monoclonal antibody (Cell Signaling, Danvers, MA) in PBS supplemented with 1% BSA and 0.3% Triton X-100. Visualisation was achieved using Alexa Fluor-488 conjugated anti-mouse antibodies (Life Technologies, Carlsbad, CA). Between each step, the samples underwent a series of three 5-min washes with PBS. Finally, the samples were mounted using Vectashield Mounting Medium with DAPI and imaged utilising a Zeiss spinning disk confocal microscope equipped with CSU-X1 unit (Yokogawa, Musashino, Japan)[10].

[9] = test system: HUVEC cells; assay: Endothelial cell tube formation angiogenesis assay; type: cell-based, human; details: 60 nM, 24 h, Matrigel
Description: The experiment was performed in 96-well plates pre-coated with 50 μL of growth factor reduced basement membrane matrix Matrigel (Corning, Corning, NY). The coating was set by incubating the plates for 1 h at 37 °C. Subsequently, HUVEC cells were seeded at a density of 15 000 cells per well, and dissolved test substances were added to this layer in a total volume of 100 μL. The assay plates were then incubated for 24 h to facilitate endothelial tube formation. After this incubation, the cells were stained with Hoechst 33342 (Thermo Fisher Scientific, Waltham, MA) to a final concentration of 10 μM and calcein AM (Invitrogen, Carlsbad, CA) to a final concentration of 2 µg/mL for 30 min, followed by visualisation in DIC and fluorescent modes using a Zeiss fluorescent microscope (Oberkochen, Germany).

[10] = target: T1, porcine brain tubulin (Sus scrofa, UniProt P02550+P02554); set-up: method as in PMID 36592487; details: dimers of the previous study; ref [10]; cited from earlier work
T1 construct: Polymerisation of porcine brain tubulin (>99% purity) was measured; purchased Cytoskeleton, Denver, CO; host or cells: porcine brain (tissue-purified)

[11] = test system: CCRF-CEM (childhood T-cell acute lymphoblastic leukaemia); assay: MTS cytotoxicity assay, CCRF-CEM; type: cell-based; details: Homo sapiens, 72 h, read-out: IC50 cytotoxic activity CCRF-CEM
How it was run: as §2

[12] = test system: K562 (chronic myelogenous leukaemia); assay: MTS cytotoxicity assay, K562; type: cell-based; details: Homo sapiens, K562, 72 h, read-out: IC50 cytotoxic activity K562
How it was run: as §2

[13] = test system: HCT116 (colorectal adenocarcinoma); assay: MTS cytotoxicity assay, HCT116; type: cell-based; details: Homo sapiens, HCT-116, 72 h, read-out: IC50 cytotoxic activity HCT116
How it was run: as §2

[14] = test system: HCT116p53−/− (p53 gene null variant of HCT116); assay: MTS cytotoxicity assay, HCT116p53−/−; type: cell-based; details: Homo sapiens, HCT-116, 72 h, read-out: IC50 cytotoxic activity HCT116p53-
How it was run: as §2

[15] = target: T1, porcine brain tubulin; assay: Tubulin polymerisation assay; type: biochemical; details: 10 μmol/L, Vmax relative to DMSO
How it was run: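 Porcine brain tubulin (>99% pure) was polymerised at 37 °C with 10 μmol/L test compound or DMSO and monitored on a plate reader. Vmax was derived from the polymerisation curves.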

[16] = test system: CCRF-CEM lymphoblasts; assay: Cell cycle analysis by flow cytometry (propidium iodide); type: cell-based, human
How it was run: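 CCRF-CEM cells treated 24 h, then fixed in cold 70% ethanol, permeabilised with 0.25% Triton X-100 and stained with anti-phospho-histone H3 (Ser10). After 50 μg/mL RNase and propidium iodide, analysed by flow cytometry at 488 nm; sub-G1 events counted as non-viable with fragmented DNA.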

[17] = test system: CCRF-CEM lymphoblasts; assay: Phospho-histone H3 (Ser10) mitotic marker, flow cytometry; type: cell-based, human
How it was run: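 Mitotic fraction scored by flow cytometry (488 nm) using Ser10-phosphorylated histone H3 antibody plus propidium iodide DNA stain, following RNase. CCRF-CEM lymphoblasts had 24 h compound exposure before ethanol fixation and Triton X-100 permeabilisation; events below G1 DNA content classed as fragmented-DNA, non-viable cells.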

[18] = test system: CCRF-CEM lymphoblasts; assay: BrDU incorporation analysis (DNA synthesis); type: cell-based, human
How it was run: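 Percentage of BrDU-incorporating cells was measured by flow cytometry after anti-BrdU/FITC and propidium iodide staining. Before that, CCRF-CEM lymphoblasts treated 24 h with compound received a 30-min 10 μM BrDU pulse, then ethanol fixation and 2 M HCl denaturation.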

[19] = test system: CCRF-CEM lymphoblasts; assay: BrU incorporation analysis (RNA synthesis); type: cell-based, human
How it was run: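 CCRF-CEM cells were treated with compounds for 24 h, then pulsed with 1 mM BrU for 30 min and fixed in 1% paraformaldehyde/0.05% NP-40. BrU was detected with a cross-reacting anti-BrdU antibody and FITC secondary, with propidium iodide/RNase counterstain; value is percentage of BrU-positive cells by flow cytometry.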

T1 sequence (P02550 whole entry): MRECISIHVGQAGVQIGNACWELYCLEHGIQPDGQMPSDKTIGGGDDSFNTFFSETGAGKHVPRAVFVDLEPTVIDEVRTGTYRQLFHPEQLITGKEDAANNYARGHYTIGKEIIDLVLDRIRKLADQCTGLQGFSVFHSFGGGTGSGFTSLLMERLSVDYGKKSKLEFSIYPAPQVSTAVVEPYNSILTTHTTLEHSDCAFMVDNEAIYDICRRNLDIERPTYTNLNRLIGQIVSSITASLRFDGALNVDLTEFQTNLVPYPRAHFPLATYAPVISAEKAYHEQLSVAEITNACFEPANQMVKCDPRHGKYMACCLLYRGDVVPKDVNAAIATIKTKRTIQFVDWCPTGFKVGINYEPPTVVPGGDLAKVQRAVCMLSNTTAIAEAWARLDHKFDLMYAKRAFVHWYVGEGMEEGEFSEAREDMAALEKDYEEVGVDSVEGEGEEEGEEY
T1 sequence (P02554 whole entry): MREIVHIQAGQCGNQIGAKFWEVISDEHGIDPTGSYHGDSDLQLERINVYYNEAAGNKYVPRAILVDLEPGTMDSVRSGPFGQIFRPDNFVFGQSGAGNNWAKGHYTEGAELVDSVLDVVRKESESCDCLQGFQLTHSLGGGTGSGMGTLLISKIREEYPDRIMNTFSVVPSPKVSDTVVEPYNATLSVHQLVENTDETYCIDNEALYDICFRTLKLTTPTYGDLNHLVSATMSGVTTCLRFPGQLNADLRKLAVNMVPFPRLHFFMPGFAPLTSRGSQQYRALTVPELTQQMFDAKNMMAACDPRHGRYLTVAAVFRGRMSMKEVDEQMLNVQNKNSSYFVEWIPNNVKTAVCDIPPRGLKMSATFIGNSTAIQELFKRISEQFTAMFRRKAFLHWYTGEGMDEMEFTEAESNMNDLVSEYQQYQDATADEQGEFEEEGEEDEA

COc1cc2c(c(OC)c1OC)-c1ccc(OC)c(=O)cc1[C@@H](NC(C)=O)CC2 [Colchicine, reference compound]
IC50 [1]: 1.02 ± 0.21 µM
IC50 [2]: 1.83 ± 0.19 µM
IC50 [3]: 0.047 ± 0.028 µM
IC50 [4]: 0.028 ± 0.014 µM
IC50 at 72 h ([5]; MTS assay, 72-h incubation, mean ± SD of 3 independent experiments, read-out: IC50 cytotoxic activity MRC-5): 0.055 ± 0.029 µM
IC50 at 72 h ([6]; MTS assay, 72-h incubation, mean ± SD of 3 independent experiments, read-out: IC50 cytotoxic activity BJ): > 50 µM
IC50 at 72 h ([7]; MTS assay, 72-h incubation, mean ± SD of 3 independent experiments, read-out: IC50 cytotoxic activity HUVEC): < 0.0122 µM
microtubule organisation in mitotic cells (in words) [8]: complete absence of the spindle with diffuse tubulin signal
endothelial cell tube formation (in words) [9]: prevented endothelial cell tube formation

C[C@]12CC[C@@H]3c4ccc(O)cc4CC[C@H]3[C@@H]1CC[C@@]2(O)c1cn(CCCCCn2cc([C@]3(O)CC[C@H]4[C@@H]5CCc6cc(O)ccc6[C@H]5CC[C@@]43C)nn2)nn1 [D1]
Tubulin polymerisation inhibition [10]: 65.0%

C[C@]12CC[C@@H]3c4ccc(O)cc4CC[C@H]3[C@@H]1CC[C@@]2(O)c1cn(CCOCCn2cc([C@]3(O)CC[C@H]4[C@@H]5CCc6cc(O)ccc6[C@H]5CC[C@@]43C)nn2)nn1 [D2]
Tubulin polymerisation inhibition [10]: 79.1%

C[C@]12CC[C@@H]3c4ccc(O)cc4CC[C@H]3[C@@H]1CC[C@@]2(O)c1cn(CCNCCn2cc([C@]3(O)CC[C@H]4[C@@H]5CCc6cc(O)ccc6[C@H]5CC[C@@]43C)nn2)nn1 [D3]
Tubulin polymerisation inhibition [10]: 36.8%

COc1cc(CN(CCn2cc([C@]3(O)CC[C@H]4[C@@H]5CCc6cc(O)ccc6[C@H]5CC[C@@]43C)nn2)CCn2cc([C@]3(O)CC[C@H]4[C@@H]5CCc6cc(O)ccc6[C@H]5CC[C@@]43C)nn2)ccc1O [D9]
Tubulin polymerisation inhibition [10]: 49.6%

C[C@]12CC[C@@H]3c4ccc(O)cc4CC[C@H]3[C@@H]1CC[C@@]2(O)c1cn(Cc2ccc(O)c(Cn3cc([C@]4(O)CC[C@H]5[C@@H]6CCc7cc(O)ccc7[C@H]6CC[C@@]54C)nn3)n2)nn1 [ED12, 17,17′-[(3-Hydroxypyridine-2,6-diyl)bis(methylene-1H-1,2,3-triazole-1,4-diyl)]di[estra-1,3,5(10)-triene-3,17β-diol]]
IC50 [11]: 6.14 ± 0.93 µM
IC50 [1]: > 50 µM
IC50 [12]: 4.52 ± 0.64 µM
IC50 [2]: > 50 µM
IC50 [3]: > 50 µM
IC50 [13]: 8.78 ± 0.88 µM
IC50 [14]: 10.5 ± 2.48 µM
IC50 [4]: 16.8 ± 3.46 µM
IC50 at 72 h [5]: 14.2 ± 3.52 µM
IC50 at 72 h [6]: 11.3 ± 1.41 µM
IC50 at 72 h [7]: 0.657 ± 0.132 µM
inhibitory activity against tubulin polymerisation (in words) [15]: comparable or better inhibitory activity; also recorded: comparable to that of the original ED
<G1 (sub-G1, fragmented DNA), % of positive cells ([16]; 1×IC50, 24 h): 11.00%
>G2/M (polyploidy), % of positive cells ([16]; 1×IC50, 24 h): 17.19%
G0/G1, % of positive cells ([16]; 1×IC50, 24 h): 4.79%
G2/M, % of positive cells ([16]; 1×IC50, 24 h): 66.70%
S, % of positive cells ([16]; 1×IC50, 24 h): 28.50%
<G1 (sub-G1, fragmented DNA), % of positive cells ([16]; 5×IC50, 24 h): 16.07%
>G2/M (polyploidy), % of positive cells ([16]; 5×IC50, 24 h): 14.18%
G0/G1, % of positive cells ([16]; 5×IC50, 24 h): 22.95%
G2/M, % of positive cells ([16]; 5×IC50, 24 h): 32.79%
S, % of positive cells ([16]; 5×IC50, 24 h): 44.26%
pH3Ser10, % of positive cells ([17]; 1×IC50, 24 h): 13.49%
pH3Ser10, % of positive cells ([17]; 5×IC50, 24 h): 47.08%
BrDU, % of positive cells ([18]; 1×IC50, 24 h): 12.43%
BrDU, % of positive cells ([18]; 5×IC50, 24 h): 7.46%
BrU, % of positive cells ([19]; 1×IC50, 24 h): 33.92%
BrU, % of positive cells ([19]; 5×IC50, 24 h): 8.14%

Cc1ccc(C(=O)Nc2ccc(S(=O)(=O)O)c3cc(S(=O)(=O)O)cc(S(=O)(=O)O)c23)cc1NC(=O)c1cccc(NC(=O)Nc2cccc(C(=O)Nc3cc(C(=O)Nc4ccc(S(=O)(=O)O)c5cc(S(=O)(=O)O)cc(S(=O)(=O)O)c45)ccc3C)c2)c1 [suramine]
endothelial cell tube formation (in words) [9]: prevented endothelial cell tube formation
